Data on 9 compounds can be found in ChEMBL document CHEMBL1201862, “PubChem BioAssay data set” (2004).

Values joined by “and” are separate entries in the source; they are usually repeats but may differ in a detail not shown here. Identical values can stand only once. Counter-ions that a name gives are not always drawn. Active and inactive are the calls of the source.

For one assay, the target named is Coagulation factor XII (Homo sapiens, UniProt P00748). Format: functional.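 Note: activated factor XIIa alpha cleaving a fluorogenic AMC peptide substrate; inhibitor potency from loss of enzyme activity.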
Chain of Coagulation factor XII (P00748 20-372 limits assumed): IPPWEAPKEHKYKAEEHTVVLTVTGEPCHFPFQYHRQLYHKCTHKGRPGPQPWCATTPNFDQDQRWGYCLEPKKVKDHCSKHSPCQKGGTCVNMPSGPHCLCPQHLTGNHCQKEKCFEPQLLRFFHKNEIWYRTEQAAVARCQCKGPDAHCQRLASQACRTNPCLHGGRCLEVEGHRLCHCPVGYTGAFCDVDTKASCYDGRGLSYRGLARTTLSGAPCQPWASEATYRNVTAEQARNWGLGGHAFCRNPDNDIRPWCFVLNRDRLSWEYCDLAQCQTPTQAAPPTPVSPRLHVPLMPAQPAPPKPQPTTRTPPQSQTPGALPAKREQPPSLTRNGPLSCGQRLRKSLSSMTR
Chain of Coagulation factor XII (P00748 373-615 limits assumed): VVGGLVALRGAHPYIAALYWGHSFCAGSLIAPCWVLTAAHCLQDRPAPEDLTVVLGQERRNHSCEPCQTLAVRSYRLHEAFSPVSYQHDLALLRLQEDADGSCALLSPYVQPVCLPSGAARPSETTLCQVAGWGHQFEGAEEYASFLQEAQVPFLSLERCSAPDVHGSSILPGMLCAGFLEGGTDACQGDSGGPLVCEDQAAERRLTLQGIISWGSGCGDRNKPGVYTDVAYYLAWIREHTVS
In assay [1] the target is T1, Rac GTPase-activating protein 1 (Homo sapiens, UniProt Q9H0H5).
T1 sequence (Q9H0H5 whole entry): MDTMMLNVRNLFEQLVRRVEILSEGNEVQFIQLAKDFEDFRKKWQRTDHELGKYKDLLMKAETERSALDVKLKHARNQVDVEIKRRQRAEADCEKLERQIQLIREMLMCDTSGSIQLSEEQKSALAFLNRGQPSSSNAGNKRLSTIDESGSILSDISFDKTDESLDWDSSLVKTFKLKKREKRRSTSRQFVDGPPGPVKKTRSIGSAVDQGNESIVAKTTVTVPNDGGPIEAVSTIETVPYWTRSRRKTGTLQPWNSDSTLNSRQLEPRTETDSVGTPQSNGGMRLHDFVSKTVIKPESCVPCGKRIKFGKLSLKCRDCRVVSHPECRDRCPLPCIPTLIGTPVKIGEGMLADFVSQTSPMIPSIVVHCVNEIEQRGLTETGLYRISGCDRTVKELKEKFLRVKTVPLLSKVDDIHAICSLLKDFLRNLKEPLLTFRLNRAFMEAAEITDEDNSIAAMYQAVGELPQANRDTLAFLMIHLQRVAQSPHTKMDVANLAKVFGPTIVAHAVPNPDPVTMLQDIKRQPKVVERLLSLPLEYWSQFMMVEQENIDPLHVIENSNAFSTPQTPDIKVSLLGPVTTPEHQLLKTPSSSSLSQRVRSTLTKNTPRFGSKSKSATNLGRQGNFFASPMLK
Briefly: MgcRacGAP GTPase-activating activity inhibitors, confirmation, biochemical, ADP Hunter fluorescence, primary and confirmatory (AID 624330). Format: functional.

A further assay deals with Ion channel NompC (Danio rerio, UniProt Q7T1G6). Briefly: Dose response cell-based high-throughput screening assay for agonists of the transient receptor potential channel N1 (TRPN1). [Related pubchem assays (depositor defined):AID1424, AID1448]. The format is functional.
Chain of Ion channel NompC (Q7T1G6 whole entry): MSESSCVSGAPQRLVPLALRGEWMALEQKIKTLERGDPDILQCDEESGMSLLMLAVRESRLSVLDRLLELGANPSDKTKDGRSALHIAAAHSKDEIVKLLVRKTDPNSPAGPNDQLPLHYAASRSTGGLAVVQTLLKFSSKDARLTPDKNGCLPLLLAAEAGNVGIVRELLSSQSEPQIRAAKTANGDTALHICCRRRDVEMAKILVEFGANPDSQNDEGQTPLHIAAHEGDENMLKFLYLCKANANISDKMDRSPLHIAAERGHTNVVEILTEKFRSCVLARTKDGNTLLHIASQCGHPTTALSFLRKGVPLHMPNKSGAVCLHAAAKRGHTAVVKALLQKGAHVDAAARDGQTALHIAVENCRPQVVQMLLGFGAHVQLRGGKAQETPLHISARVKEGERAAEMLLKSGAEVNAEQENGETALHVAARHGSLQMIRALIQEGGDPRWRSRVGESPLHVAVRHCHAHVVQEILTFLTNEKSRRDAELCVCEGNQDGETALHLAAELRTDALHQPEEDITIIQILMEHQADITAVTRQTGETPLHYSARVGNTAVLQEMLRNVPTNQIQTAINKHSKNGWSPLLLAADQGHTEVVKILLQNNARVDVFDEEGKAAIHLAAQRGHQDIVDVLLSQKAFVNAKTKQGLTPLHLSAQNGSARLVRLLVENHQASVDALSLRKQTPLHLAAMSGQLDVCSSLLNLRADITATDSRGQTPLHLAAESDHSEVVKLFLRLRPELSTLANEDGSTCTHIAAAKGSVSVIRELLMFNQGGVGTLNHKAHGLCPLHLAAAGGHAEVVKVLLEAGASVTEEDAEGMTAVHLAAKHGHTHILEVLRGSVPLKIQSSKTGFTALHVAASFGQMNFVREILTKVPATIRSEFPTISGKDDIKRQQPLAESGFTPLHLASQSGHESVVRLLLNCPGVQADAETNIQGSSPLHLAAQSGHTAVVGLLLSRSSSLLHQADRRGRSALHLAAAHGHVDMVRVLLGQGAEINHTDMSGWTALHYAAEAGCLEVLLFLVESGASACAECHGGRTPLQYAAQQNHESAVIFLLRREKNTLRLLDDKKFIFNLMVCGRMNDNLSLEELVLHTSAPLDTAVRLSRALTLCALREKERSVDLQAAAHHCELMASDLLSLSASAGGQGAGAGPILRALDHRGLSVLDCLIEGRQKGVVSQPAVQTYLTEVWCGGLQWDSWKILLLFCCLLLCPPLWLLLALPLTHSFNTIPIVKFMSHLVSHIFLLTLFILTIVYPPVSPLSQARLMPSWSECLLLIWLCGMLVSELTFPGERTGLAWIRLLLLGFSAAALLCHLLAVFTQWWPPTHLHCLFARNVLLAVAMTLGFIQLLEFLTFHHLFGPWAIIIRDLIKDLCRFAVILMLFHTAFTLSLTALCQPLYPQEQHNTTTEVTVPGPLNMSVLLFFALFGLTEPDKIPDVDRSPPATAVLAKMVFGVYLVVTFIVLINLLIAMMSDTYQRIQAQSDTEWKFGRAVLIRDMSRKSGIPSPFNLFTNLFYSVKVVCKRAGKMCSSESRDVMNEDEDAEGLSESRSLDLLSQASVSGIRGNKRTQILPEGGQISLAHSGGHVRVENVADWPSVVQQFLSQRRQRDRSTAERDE
Assay [2] addresses Induced myeloid leukemia cell differentiation protein Mcl-1 (Homo sapiens, UniProt Q07820). The format is functional.
The target in the next assay is T2, Mucolipin-3 (Homo sapiens, UniProt Q8TDD5).
T2 sequence (Q8TDD5 whole entry): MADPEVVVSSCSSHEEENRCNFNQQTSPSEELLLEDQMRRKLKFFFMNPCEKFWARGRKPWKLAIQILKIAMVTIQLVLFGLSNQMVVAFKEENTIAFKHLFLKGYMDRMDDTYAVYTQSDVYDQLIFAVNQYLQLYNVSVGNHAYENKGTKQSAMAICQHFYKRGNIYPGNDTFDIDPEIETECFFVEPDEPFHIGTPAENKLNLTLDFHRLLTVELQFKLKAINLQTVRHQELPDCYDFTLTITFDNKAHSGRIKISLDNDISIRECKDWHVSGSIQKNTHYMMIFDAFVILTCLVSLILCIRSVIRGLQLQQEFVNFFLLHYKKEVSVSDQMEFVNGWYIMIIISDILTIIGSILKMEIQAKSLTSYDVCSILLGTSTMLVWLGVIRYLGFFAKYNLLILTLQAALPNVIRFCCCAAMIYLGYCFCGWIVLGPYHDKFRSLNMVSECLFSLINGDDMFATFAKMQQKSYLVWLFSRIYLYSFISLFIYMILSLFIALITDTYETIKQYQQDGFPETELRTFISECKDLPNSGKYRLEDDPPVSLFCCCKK
Briefly: Fluorescence counterscreen assay for […] agonists: dose response cell-based high-throughput screening assay to identify agonists of the transient receptor potential channel ML3 (TRPML3). [Related pubchem assays: 1424, 1448 ]. The format is functional. (Counterscreens check selectivity or assay interference.)

The target of assay [3] is T3, Sphingosine 1-phosphate receptor 4 (Homo sapiens, UniProt O95977).
T3 sequence (O95977 whole entry): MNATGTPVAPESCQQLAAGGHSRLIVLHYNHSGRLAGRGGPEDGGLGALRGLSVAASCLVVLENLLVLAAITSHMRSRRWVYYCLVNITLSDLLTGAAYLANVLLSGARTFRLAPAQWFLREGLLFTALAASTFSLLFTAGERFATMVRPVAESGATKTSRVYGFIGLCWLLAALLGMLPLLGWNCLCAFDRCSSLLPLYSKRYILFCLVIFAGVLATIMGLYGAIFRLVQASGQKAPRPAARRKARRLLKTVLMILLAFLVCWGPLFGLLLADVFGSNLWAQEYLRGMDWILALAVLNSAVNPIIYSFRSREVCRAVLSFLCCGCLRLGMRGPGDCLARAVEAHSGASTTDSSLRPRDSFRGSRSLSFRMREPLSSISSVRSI
Nature of the assay: Late-stage fluorescence dose response cell-based assay to identify agonists of the Sphingosine 1-Phosphate Receptor 4 (S1P4): purchased compounds EC50. [Related pubchem assays (depositor defined):AID1509, AID1523, AID1563, AID1686, AID1701, AID1801]. Format: functional.

The next assay concerns the target T4, Hexokinase HKDC1 (Homo sapiens, UniProt Q2TB90).
T4 sequence (Q2TB90 whole entry): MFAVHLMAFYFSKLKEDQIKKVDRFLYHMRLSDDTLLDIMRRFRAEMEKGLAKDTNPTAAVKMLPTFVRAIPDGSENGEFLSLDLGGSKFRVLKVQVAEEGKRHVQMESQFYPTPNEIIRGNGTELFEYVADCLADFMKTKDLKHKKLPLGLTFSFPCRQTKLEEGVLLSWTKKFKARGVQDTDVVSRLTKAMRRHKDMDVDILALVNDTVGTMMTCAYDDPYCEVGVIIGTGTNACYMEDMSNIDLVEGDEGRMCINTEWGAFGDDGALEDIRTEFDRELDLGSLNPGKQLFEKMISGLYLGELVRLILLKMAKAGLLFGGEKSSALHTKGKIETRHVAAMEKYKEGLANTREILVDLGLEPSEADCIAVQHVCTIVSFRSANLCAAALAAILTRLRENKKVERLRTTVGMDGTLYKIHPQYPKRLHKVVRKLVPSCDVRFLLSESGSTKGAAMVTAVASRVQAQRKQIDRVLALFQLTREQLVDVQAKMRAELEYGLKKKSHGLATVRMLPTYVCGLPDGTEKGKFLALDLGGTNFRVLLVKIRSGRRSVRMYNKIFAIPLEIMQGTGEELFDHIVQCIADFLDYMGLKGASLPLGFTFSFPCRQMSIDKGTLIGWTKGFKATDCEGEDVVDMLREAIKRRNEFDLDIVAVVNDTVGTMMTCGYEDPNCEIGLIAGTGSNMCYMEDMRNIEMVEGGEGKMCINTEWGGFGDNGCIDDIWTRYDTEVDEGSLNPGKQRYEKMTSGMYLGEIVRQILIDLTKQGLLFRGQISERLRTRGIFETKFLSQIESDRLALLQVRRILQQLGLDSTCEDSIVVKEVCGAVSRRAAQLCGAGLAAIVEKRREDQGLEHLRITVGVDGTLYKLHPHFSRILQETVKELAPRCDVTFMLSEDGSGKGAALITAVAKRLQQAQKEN
Nature of the assay: HKDC1 hexokinase activators, dose response, biochemical, W721R variant (AID 504730). Format: functional.

In assay [4] the target is T5, Mannose-6-phosphate isomerase (Homo sapiens, UniProt P34949).
T5 sequence (P34949 whole entry): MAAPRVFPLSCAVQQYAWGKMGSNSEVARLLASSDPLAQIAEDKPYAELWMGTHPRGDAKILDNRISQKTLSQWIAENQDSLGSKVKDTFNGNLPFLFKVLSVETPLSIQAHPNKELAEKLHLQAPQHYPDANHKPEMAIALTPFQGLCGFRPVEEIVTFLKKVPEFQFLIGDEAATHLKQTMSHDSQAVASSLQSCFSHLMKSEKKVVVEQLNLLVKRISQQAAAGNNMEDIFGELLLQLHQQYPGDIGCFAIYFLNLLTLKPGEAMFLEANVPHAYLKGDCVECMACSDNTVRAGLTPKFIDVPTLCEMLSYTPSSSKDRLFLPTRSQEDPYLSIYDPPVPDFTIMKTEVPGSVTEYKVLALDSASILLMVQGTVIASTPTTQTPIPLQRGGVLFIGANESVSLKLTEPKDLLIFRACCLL
Nature of the assay: human PMI inhibitors, high substrate, primary screen, biochemical, fluorescence intensity, high mannose 6-phosphate (AID 1220).

For assay [5], the target named is Glucose-6-phosphate 1-dehydrogenase (Homo sapiens, UniProt P11413). Nature of the assay: human G6PD enzyme inhibitors, dose response, selectivity assay for P. falciparum G6PD inhibitor project, biochemical, fluorescence (AID 504792). Format: functional.
Chain of Glucose-6-phosphate 1-dehydrogenase (P11413 whole entry): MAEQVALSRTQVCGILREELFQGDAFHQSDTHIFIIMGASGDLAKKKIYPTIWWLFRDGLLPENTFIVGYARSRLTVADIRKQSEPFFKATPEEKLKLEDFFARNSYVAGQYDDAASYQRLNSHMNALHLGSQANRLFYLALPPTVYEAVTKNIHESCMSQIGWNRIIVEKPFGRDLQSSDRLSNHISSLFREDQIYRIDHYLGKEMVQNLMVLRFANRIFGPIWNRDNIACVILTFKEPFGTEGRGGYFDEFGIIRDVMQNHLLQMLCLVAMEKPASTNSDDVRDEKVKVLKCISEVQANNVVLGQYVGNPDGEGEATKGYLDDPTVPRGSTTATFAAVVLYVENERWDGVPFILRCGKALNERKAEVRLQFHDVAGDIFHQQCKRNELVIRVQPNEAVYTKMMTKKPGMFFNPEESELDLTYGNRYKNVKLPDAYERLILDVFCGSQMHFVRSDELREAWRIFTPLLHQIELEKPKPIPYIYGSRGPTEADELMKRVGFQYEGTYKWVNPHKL
The next assay has as its target T6, Hexokinase-1 (Homo sapiens, UniProt P19367).
T6 sequence (P19367 whole entry): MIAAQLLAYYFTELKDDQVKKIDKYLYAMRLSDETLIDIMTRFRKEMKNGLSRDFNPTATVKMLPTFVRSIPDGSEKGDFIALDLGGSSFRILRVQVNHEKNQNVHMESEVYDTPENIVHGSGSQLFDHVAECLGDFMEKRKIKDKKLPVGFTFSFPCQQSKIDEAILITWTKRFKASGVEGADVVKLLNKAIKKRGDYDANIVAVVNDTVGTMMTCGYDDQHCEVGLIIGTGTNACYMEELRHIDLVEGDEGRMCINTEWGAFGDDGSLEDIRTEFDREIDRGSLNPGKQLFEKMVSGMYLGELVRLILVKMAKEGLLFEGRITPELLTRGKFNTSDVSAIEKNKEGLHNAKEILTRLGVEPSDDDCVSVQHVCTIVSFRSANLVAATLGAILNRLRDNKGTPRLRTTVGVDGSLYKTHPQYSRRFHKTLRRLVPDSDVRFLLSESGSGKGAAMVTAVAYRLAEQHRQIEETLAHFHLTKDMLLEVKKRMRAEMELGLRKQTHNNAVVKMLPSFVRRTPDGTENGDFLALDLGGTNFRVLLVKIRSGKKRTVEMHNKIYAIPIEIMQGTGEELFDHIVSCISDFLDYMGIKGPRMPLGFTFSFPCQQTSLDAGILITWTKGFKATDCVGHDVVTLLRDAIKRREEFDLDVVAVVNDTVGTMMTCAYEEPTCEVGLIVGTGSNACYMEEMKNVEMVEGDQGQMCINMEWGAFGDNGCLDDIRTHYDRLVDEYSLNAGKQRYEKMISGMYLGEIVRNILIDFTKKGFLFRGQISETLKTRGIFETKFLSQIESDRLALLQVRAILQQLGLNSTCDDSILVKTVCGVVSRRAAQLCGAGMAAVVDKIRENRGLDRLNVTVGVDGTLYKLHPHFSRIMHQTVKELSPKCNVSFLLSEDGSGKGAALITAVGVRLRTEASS
Briefly: hexokinase 1 activators, dose response, selectivity assay for HKDC1 activator project, biochemical (AID 504762). The format is functional.

Assay [6] in a line: microbe, parasite or virus in culture. Format: functional. The conditions noted are these: Mycobacterium tuberculosis.
In another assay the test system is BJ. Nature of the assay: cytotoxicity toward Ras-transformed BJeLR fibroblasts, dose response, cell-based, alamar blue fluorescence, cherrypicked samples (AID 2631).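 Note: confirmatory dose-response assay in RAS-dependent BJ fibroblasts engineered with TERT, LT and ST, with cytotoxicity read by fluorescence.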 Format: functional. To be noted: Homo sapiens. A general note: The colour change of resazurin is a common sign of viable cells or microbes.
A short description of assay [7]: cytotoxicity in HEK-293T NF-kB-Luc cells, dose response, cytotoxicity control for B/T-cell NF-kB inhibitor project, cell-based, uHTS hits (AID 489019).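 Note: IC50 reflects cytotoxicity as loss of cell viability.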 The format is functional.
Assay [8] deals with T7, Neuropeptides B/W receptor type 1 (Homo sapiens, UniProt P48145).
T7 sequence (P48145 whole entry): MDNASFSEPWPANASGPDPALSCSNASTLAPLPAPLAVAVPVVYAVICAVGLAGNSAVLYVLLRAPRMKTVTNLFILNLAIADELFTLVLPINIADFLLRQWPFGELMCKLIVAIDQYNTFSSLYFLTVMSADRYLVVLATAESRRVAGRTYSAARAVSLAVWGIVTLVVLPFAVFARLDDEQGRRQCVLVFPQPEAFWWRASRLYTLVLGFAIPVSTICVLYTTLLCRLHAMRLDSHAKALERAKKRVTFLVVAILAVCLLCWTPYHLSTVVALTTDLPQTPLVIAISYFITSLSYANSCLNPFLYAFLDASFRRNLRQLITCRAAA
Nature of the assay: Fluorescence-based dose response cell-based high throughput screening assay to identify antagonists of the G-protein coupled receptor 7 (GPR7). [Related pubchem assays: 1952 (Screening assay (GPR7 antagonists).), 1880 (Summary AID.)]. Format: functional.

In assay [9] the target is Melanin-concentrating hormone receptor 1 (Homo sapiens, UniProt Q99705). Nature of the assay: Fluorescence-based counterscreen for antagonists of the G-protein coupled receptor 7 (GPR7): cell-based high throughput dose response assay to identify antagonists of the melanin-concentrating hormone receptor 1 (MCHR1). The format is functional.
Chain of Melanin-concentrating hormone receptor 1 (Q99705 whole entry): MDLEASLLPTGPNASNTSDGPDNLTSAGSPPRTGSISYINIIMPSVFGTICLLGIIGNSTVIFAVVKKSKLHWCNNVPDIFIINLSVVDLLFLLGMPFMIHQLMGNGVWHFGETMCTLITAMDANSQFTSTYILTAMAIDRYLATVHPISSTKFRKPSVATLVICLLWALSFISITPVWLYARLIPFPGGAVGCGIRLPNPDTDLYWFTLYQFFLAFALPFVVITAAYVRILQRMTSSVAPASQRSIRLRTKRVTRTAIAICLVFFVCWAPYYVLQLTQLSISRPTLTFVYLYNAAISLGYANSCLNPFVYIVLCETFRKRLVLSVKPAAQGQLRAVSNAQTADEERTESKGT

Chain of Induced myeloid leukemia cell differentiation protein Mcl-1 (Q07820 whole entry): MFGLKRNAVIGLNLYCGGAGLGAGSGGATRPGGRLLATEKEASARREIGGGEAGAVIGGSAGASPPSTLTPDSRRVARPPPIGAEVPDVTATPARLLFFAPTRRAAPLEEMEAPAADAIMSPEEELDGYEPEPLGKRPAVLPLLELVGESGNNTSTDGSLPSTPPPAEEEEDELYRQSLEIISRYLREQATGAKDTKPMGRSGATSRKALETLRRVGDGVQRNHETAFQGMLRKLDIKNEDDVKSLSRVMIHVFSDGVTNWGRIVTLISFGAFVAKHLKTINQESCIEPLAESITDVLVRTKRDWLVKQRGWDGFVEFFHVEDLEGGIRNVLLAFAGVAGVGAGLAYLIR

For orientation: IC50 means the point on the concentration scale where inhibition reaches its midpoint. On to `CC(=O)c1sc(NC(=O)COc2ccc(Cl)cc2C)nc1C`, for which the IC50 at Coagulation factor XII was > 50 µM (inactive).
One may read the EC50 as the concentration that produces a half-maximal response. Take `O=C1/C(=C\c2ccc(O)cc2)SC(=S)N1/N=C/c1ccc(O)cc1`: the IC50 is 105 µM (active) in [1] and 2.48 µM (active) in assay [2]. Also, the EC50 is 4.9 µM (active) at Ion channel NompC and > 29.9 µM (not active) on Mucolipin-3.
As to `Cc1ccc(OCC(=O)NCCc2ccc(Cl)cc2Cl)c([N+](=O)[O-])n1`, the EC50 in assay [3] was > 50 µM (inactive).
The same measure, in the same setting: the result for `CCNC(=O)NC(=O)C(C)OC(=O)c1c(C)nn(Cc2ccccc2Cl)c1Cl` (stereo unspecified) reads 1.5 µM (active) and 2.5 µM (active).
For the compound `CCn1c2ccccc2c2nc3cc(S(=O)(=O)N4CCOCC4)ccc3nc21`, the EC50 on Hexokinase HKDC1 and at Hexokinase-1 was > 80 µM (inactive) in each case. Moreover, the IC50 in [4] is 20 µM (active); in [5], > 80 µM (inactive).
With `COc1ccc(NC2=NN=C(c3ccc4c(c3)OCCO4)CS2)cc1`, the EC50 at Hexokinase HKDC1 is 25 µM (inactive); at Hexokinase-1 it was 23.9 µM (inactive).
`COc1cccc2c1C(=O)c1c(O)c3c(c(O)c1C2=O)C[C@@](O)(C(=O)CO)C[C@@H]3O[C@H]1C[C@H](N)[C@@H](O)[C@H](C)O1` [EPIRUBICIN HYDROCHLORIDE]: the CC50 in [6] was 18.7 µM (active). Also, the EC50 with BJ was < 0.104 µM (active). Also, the IC50 in assay [7] is > 80 µM (inactive).
Regarding `O=C(CN1C(=O)C2C3CC(C(Br)C3Br)C2C1=O)N1CCN(Cc2ccccc2)CC1` (stereo unspecified), the values for the IC50 in assay [8] and in assay [9] were 4.18 µM (active) and 20.7 µM (not active), respectively. Moreover, the EC50 on Ion channel NompC is 16.9 µM (inactive); on Mucolipin-3, > 29.9 µM (not active).
For `COc1ccccc1CN1CCNC(=O)C1CC(=O)N(C)Cc1cnccn1` (stereo unspecified), the IC50 at Coagulation factor XII was > 50 µM (inactive).
